Where two headings read alike, the source gives them in different places.
Key:
[1] = Ternary phase diagram amikacin sulfate-water-ethanol; format: physicochemical; conditions: 3 parts amikacin sulfate 70 mg/mL in water mixed with 2 parts ethanol
Description: FIG. 3 depicts a ternary phase diagram of amikacin sulfate—water—ethanol system.
FIG. 3 depicts a ternary phase diagram for an amikacin sulfate—water—ethanol system. The two-phase area under the binodial curve is a zone where the system separates into two phases, a coacervate phase and an equilibrium phase. The area above the binodial curve is a zone where single liquid phase system of amikacin sulfate dissolved in water-ethanol mixture exists. When 3 parts of amikacin sulfate solution in water at 70 mg/mL (point 1) is mixed with 2 parts of ethanol, the resulting mixture has composition (point 2), which spontaneously separates into two phases: coacervate phase rich in amikacin (point C) and equilibrium phase pour in amikacin (point E). Coacervate phase comprises only about 4.5% of total volume and originally forms as small droplets suspended in equilibrium phase. If lipids are present in surrounding solution when coacervates are just formed, they can spontaneously form bilayers around those droplets. During manufacturing it is often desired to limit exposure of the product to high ethanol concentration. For examples, another 3 parts of saline or buffer can be added consequently to the mixture, which shifts composition to the single-phase zone (point 3). […]

[2] = Miscibility of amikacin sulfate with ethanol/water; format: physicochemical; conditions: ethanol/water mixture, aqueous with cosolvent or surfactant or cyclodextrin

coacervate phase, share of total volume [1]	solubility ([2]; 27% ethanol, depending on temperature, read-out: amikacin soluble concentration) [mg/mL]	solubility ([2]; 34% ethanol, read-out: solubility limit) [mg/mL]	SMILES
about 4.5%	–	–	NCC[C@H](O)C(=O)N[C@@H]1C[C@H](N)[C@@H](O[C@H]2O[C@H](CN)[C@@H](O)[C@H](O)[C@H]2O)[C@H](O)[C@H]1O[C@H]1O[C@H](CO)[C@@H](O)[C@H](N)[C@H]1O.O=S(=O)(O)O.O=S(=O)(O)O [amikacin sulfate]
–	≥ 15	< 15	NCC[C@H](O)C(=O)N[C@@H]1C[C@H](N)[C@@H](O[C@H]2O[C@H](CN)[C@@H](O)[C@H](O)[C@H]2O)[C@H](O)[C@H]1O[C@H]1O[C@H](CO)[C@@H](O)[C@H](N)[C@H]1O [amikacin]

Reference: patent US20080089927A1, “Methods for Coacervation Induced Liposomal Encapsulation and Formulations Thereof” (priority 2006, published 2008)
